Results reported in US20240199546A1, “INHIBITORS OF SOLUTE CARRIER FAMILY 6A MEMBER 19 (SLC6A19) AND METHODS OF USE THEREOF” (Maze Therapeutics, Inc., priority 2022, published 2024).

Legend:
human SLC6A19 and TMEM27 [1] = target: T1, human SLC6A19 and TMEM27 (Homo sapiens, UniProt Q695T7); experiment: 13C6,15N-isoleucine uptake in CHO cells with doxycycline-inducible expression of human SLC6A19 and TMEM27, RapidFire mass spectrometry (Example B-2); format: cell-based; conditions: read-out: SLC6A19_RapidFire Uptake Assay IC50
T1 construct: expressed in transfected cells
T1 sequence (Q695T7 1-634): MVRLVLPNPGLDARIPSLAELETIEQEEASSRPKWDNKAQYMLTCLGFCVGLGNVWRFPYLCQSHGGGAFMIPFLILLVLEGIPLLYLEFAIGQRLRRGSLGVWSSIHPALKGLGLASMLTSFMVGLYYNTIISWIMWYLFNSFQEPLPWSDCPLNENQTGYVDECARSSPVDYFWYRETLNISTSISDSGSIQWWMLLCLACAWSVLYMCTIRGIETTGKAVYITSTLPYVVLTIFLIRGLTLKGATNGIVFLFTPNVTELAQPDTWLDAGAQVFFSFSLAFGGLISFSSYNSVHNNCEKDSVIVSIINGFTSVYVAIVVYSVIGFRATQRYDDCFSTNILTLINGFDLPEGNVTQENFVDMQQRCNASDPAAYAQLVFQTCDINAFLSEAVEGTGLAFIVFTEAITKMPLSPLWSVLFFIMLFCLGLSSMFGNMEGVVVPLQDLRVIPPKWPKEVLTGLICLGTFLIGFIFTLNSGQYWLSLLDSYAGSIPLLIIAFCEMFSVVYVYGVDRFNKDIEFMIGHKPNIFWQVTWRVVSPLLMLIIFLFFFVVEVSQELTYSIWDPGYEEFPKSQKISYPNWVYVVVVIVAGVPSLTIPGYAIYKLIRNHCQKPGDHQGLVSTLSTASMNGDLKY
T1 sequence (Q9HBJ8 15-222 partner): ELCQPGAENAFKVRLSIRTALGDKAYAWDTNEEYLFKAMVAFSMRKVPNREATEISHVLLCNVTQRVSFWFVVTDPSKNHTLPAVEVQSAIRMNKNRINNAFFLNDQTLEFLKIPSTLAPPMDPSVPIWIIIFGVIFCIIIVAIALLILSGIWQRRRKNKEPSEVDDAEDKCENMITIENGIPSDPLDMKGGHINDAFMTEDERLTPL
Method in brief: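 CHO cells induced overnight with doxycycline to express human SLC6A19 plus TMEM27; 20 min preincubation with compound (10-point 2-fold series, duplicate) at 37 °C in HEPES buffer pH 7.2, then 20 min with 13C6,15N-isoleucine. Intracellular label quantified by RapidFire MS against 13C-leucine standard; positive control defined 100% inhibition.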

human SLC6A19 and TMEM27 [2] = target: T1, human SLC6A19 and TMEM27; experiment: Radiolabelled (3H) leucine uptake in CHO cells with doxycycline-inducible expression of human SLC6A19 and TMEM27 (Example B-1); format: cell-based; conditions: CHO cells with doxycycline-inducible expression of human SLC6A19 and TMEM27, read-out: SLC6A19_Radioligand Uptake Assay IC50
Method in brief: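 CHO cells were induced with doxycycline for 18 h at 37 °C, washed in HBSS, then exposed to compounds for 1 h: 8-point, 3-fold dilutions in duplicate, 0.5% DMSO final. Uptake measured by scintillation counting after 2 h shaking. Activity normalized with positive control as 0% and DMSO as 100%.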

| Compound | IC50 (human SLC6A19 and TMEM27 [1]) | IC50 (human SLC6A19 and TMEM27 [2]) |
| --- | --- | --- |
| CC(C)C(=O)NCc1cc2cc(F)c(OCc3cscn3)cc2[nH]1 [Compound 135, N-((5-fluoro-6-(thiazol-4-ylmethoxy)-1H-indol-2-yl)methyl)isobutyramide] | 0.049 µM | 0.082 µM |
| CCC(=O)NCc1cc2cc(Cl)c(OCc3cc(C)on3)cc2[nH]1 [Compound 128, N-((5-chloro-6-((5-methylisoxazol-3-yl)methoxy)-1H-indol-2-yl)methyl)propionamide] | 0.032 µM | 0.07 µM |
| O=C(NCc1cc2cc(F)c(OCc3cscn3)cc2[nH]1)C1(F)CC1 [Compound 230, 1-fluoro-N-((5-fluoro-6-(thiazol-4-ylmethoxy)-1H-indol-2-yl)methyl)cyclopropane-1-carboxamide] | 0.0229 µM | 0.0696 µM |
| Cc1cc(COc2cc3[nH]c(CNC(=O)C4(C)CC4)cc3cc2Cl)no1 [Compound 45, N-((5-chloro-6-((5-methylisoxazol-3-yl)methoxy)-1H-indol-2-yl)methyl)-1-methylcyclopropane-1-carboxamide] | 0.075 µM | 0.18 µM |
| CCC(=O)NCc1cc2cc(C)c(OCc3ccon3)cc2[nH]1 [Compound 530, N-((6-(isoxazol-3-ylmethoxy)-5-methyl-1H-indol-2-yl)methyl)propionamide] | 0.208 µM | 0.171 µM |
| CCC(=O)NCc1cc2cc(Cl)c(OCc3ccon3)cc2[nH]1 [Compound 129, N-((5-chloro-6-(isoxazol-3-ylmethoxy)-1H-indol-2-yl)methyl)propionamide] | 0.044 µM | 0.08 µM |
| O=C(NCc1cc2cc(Cl)c(OCc3cccc(F)n3)cc2[nH]1)C1CC1 [Compound 499, N-((5-chloro-6-((6-fluoropyridin-2-yl)methoxy)-1H-indol-2-yl)methyl)cyclopropanecarboxamide] | 0.0554 µM | 0.213 µM |
| CC(=O)NCc1cc2cc(F)c(OCc3cccc(F)n3)cc2[nH]1 [Compound 226, N-((5-fluoro-6-((6-fluoropyridin-2-yl)methoxy)-1H-indol-2-yl)methyl)acetamide] | 0.96 µM | 1.12 µM |
| O=C(NCc1cc2cc(OC(F)(F)F)c(OCc3cscn3)cc2[nH]1)N1CCC1 [Compound 421, N-((6-(thiazol-4-ylmethoxy)-5-(trifluoromethoxy)-1H-indol-2-yl)methyl)azetidine-1-carboxamide] | 0.131 µM | 0.359 µM |
| O=C(NCc1cc2ccc(OCc3ccon3)cc2[nH]1)N1CCCC1 [Compound 104, N-((6-(isoxazol-3-ylmethoxy)-1H-indol-2-yl)methyl)pyrrolidine-1-carboxamide] | 0.452 µM | – |
| CC1(C(=O)NCc2cc3ccc(OCC4CCCC4)cc3[nH]2)CC1 [Compound 187, N-((6-(cyclopentylmethoxy)-1H-indol-2-yl)methyl)-1-methylcyclopropane-1-carboxamide] | 0.178 µM | – |
| CC1(C(=O)NCc2cc3ccc(OCc4ccon4)cc3[nH]2)CC1 [Compound 20, N-((6-(isoxazol-3-ylmethoxy)-1H-indol-2-yl)methyl)-1-methylcyclopropane-1-carboxamide] | 0.168 µM | – |
| CC1(C(=O)NCc2cc3ccc(OCc4ccccn4)cc3[nH]2)CC1 [Compound 54, 1-methyl-N-((6-(pyridin-2-ylmethoxy)-1H-indol-2-yl)methyl)cyclopropane-1-carboxamide] | 0.155 µM | – |

More lines, in order of falling IC50 (human SLC6A19 and TMEM27 [1]), values ahead:

| IC50 (human SLC6A19 and TMEM27 [1]) | IC50 (human SLC6A19 and TMEM27 [2]) | Compound |
| --- | --- | --- |
| 6.61 µM | 3.17 µM | CC(=O)NCc1cc2cc(F)c(OCc3cnn(C)n3)cc2[nH]1 [Compound 222, N-((5-fluoro-6-((2-methyl-2H-1,2,3-triazol-4-yl)methoxy)-1H-indol-2-yl)methyl)acetamide] |
| 1.82 µM | 1.31 µM | O=C(NCc1cc2cc(F)c(NCc3ccon3)cc2[nH]1)N1CCC1 [Compound 470, N-((5-fluoro-6-((isoxazol-3-ylmethyl)amino)-1H-indol-2-yl)methyl)azetidine-1-carboxamide] |
| 0.838 µM | – | CC1(C(=O)NCc2cc3ccc(OCc4ccc(Cl)cc4)cc3[nH]2)CC1 [Compound 44, N-((6-((4-chlorobenzyl)oxy)-1H-indol-2-yl)methyl)-1-methylcyclopropane-1-carboxamide] |
| 0.833 µM | 0.426 µM | Cc1nc(COc2cc3[nH]c(CNC(=O)C4CC4)cc3cc2F)co1 [Compound 549, N-((5-fluoro-6-((2-methyloxazol-4-yl)methoxy)-1H-indol-2-yl)methyl)cyclopropanecarboxamide] |
| 0.613 µM | – | O=C(NCc1cc2ccc(OCc3cncs3)cc2[nH]1)N1CCCC1 [Compound 106, N-((6-(thiazol-5-ylmethoxy)-1H-indol-2-yl)methyl)pyrrolidine-1-carboxamide] |
| 0.563 µM | – | Cc1nc(COc2ccc3cc(CNC(=O)C4(C)CC4)[nH]c3c2)co1 [Compound 180, 1-methyl-N-((6-((2-methyloxazol-4-yl)methoxy)-1H-indol-2-yl)methyl)cyclopropane-1-carboxamide] |
| 0.491 µM | 1.26 µM | CCc1c(CNC(=O)N2CCC2)[nH]c2cc(OCc3cscn3)c(Cl)cc12 [Compound 424, N-((5-chloro-3-ethyl-6-(thiazol-4-ylmethoxy)-1H-indol-2-yl)methyl)azetidine-1-carboxamide] |
| 0.217 µM | 0.326 µM | CC1(C(=O)NCc2cc3cc(CC(F)(F)F)c(OCc4ccon4)cc3[nH]2)CC1 [Compound 649, N-((6-(isoxazol-3-ylmethoxy)-5-(2,2,2-trifluoroethyl)-1H-indol-2-yl)methyl)-1-methylcyclopropane-1-carboxamide] |
| 0.198 µM | – | Cc1c(CNC(=O)C2(C)CC2)[nH]c2cc(OCc3ccccc3)ccc12 [Compound 156, N-((6-(benzyloxy)-3-methyl-1H-indol-2-yl)methyl)-1-methylcyclopropane-1-carboxamide] |
| 0.193 µM | 0.152 µM | CNC(=O)NCc1cc2cc(F)c(OCc3cscn3)cc2[nH]1 [Compound 214, 1-((5-fluoro-6-(thiazol-4-ylmethoxy)-1H-indol-2-yl)methyl)-3-methylurea] |
| 0.184 µM | 0.197 µM | O=C(NCc1cc2cc(F)c(OCc3cccc(F)n3)cc2[nH]1)C1CC1 [Compound 497, N-((5-fluoro-6-((6-fluoropyridin-2-yl)methoxy)-1H-indol-2-yl)methyl)cyclopropanecarboxamide] |
| 0.174 µM | 0.284 µM | O=C(NCc1cc2cc(Cl)c(OCc3cocn3)cc2[nH]1)N1CCCC1 [Compound 113, N-((5-chloro-6-(oxazol-4-ylmethoxy)-1H-indol-2-yl)methyl)pyrrolidine-1-carboxamide] |
| 0.154 µM | 0.192 µM | CCC(=O)NCc1cc2cc(C)c(OCc3cscn3)cc2[nH]1 [Compound 529, N-((5-methyl-6-(thiazol-4-ylmethoxy)-1H-indol-2-yl)methyl)propionamide] |
| 0.149 µM | 0.21 µM | COc1cc2cc(CNC(=O)C3(C)CC3)[nH]c2cc1CCc1cscn1 [Compound 631, N-((5-methoxy-6-(2-(thiazol-4-yl)ethyl)-1H-indol-2-yl)methyl)-1-methylcyclopropane-1-carboxamide] |
| 0.071 µM | 0.261 µM | CC1(C(=O)NCc2cc3cc(Cl)c(OCc4ccccn4)cc3[nH]2)CC1 [Compound 41, N-((5-chloro-6-(pyridin-2-ylmethoxy)-1H-indol-2-yl)methyl)-1-methylcyclopropane-1-carboxamide] |
| 0.059 µM | 0.144 µM | CC1(C(=O)NCc2cc3cc(Cl)c(OCc4cscn4)cc3[nH]2)CC1 [Compound 184, N-((5-chloro-6-(thiazol-4-ylmethoxy)-1H-indol-2-yl)methyl)-1-methylcyclopropane-1-carboxamide] |
| 0.0518 µM | 0.145 µM | CC1(C(=O)NCc2cc3cc(Cl)c(CCn4cccn4)cc3[nH]2)CC1 [Compound 590, N-((6-(2-(1H-pyrazol-1-yl)ethyl)-5-chloro-1H-indol-2-yl)methyl)-1-methylcyclopropane-1-carboxamide] |
| 0.0493 µM | 0.139 µM | O=C(NCc1cc2cc(Cl)c(OCc3cscn3)cc2[nH]1)C1(F)CC1 [Compound 231, N-((5-chloro-6-(thiazol-4-ylmethoxy)-1H-indol-2-yl)methyl)-1-fluorocyclopropane-1-carboxamide] |
